Patent EP0641797A1, “Cephem derivatives and antimicrobial agents containing the same” (KATAYAMA SEIYAKUSYO CO. Ltd., priority 1993, dated 1995)
Values after ≈ are worked out from the molar mass of the structure shown.

What was measured:
Assay in all cases: MIC on standard strains, standard method of Japan Society of Chemotherapy
Type in all cases: cell-based
[1] = test system: A. calcoaceticos T59; details: read-out: MIC
Method in brief: (§1)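 Test compounds were run alongside cefotiam and flomoxef controls, with growth inhibition assessed by the standard protocol of the Japan Society of Chemotherapy on 25 reference strains.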

[2] = test system: A. faecalis ATCC 3750; details: Alcaligenes faecalis, ATCC3750, A. faecalis ATCC 3750; read-out: MIC
Method in brief: as §1

[3] = test system: B. subtilis ATCC 6633; details: Bacillus subtilis, ATCC6633, B. subtilis ATCC 6633; read-out: MIC
Method in brief: as §1

[4] = test system: C. freundii ATCC 8090; details: Citrobacter freundii, ATCC8090, C. freundii ATCC 8090; read-out: MIC
Method in brief: as §1

[5] = test system: E. cloacae ATCC 13407; details: Enterobacter cloacae, ATCC13407, E. cloacae ATCC 13407; read-out: MIC
Method in brief: as §1

[6] = test system: E. cloacae Nek39; details: Enterobacter cloacae, NEK39, E. cloacae Nek39; read-out: MIC
Method in brief: as §1

[7] = test system: E. coli CSH2(RE45); details: Escherichia coli
Method in brief: (§2)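 Antibacterial activity is measured by the Japan Society of Chemotherapy method. Flomoxef and cefotiam act as control agents.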

[8] = test system: E. coli CSH2(RK1); details: Escherichia coli
Method in brief: as §2

[9] = test system: E. coli NHIJ JC-2; details: Escherichia coli, NHIJJC2
Method in brief: as §1

[10] = test system: K. pneuminiae IFO 3317
Method in brief: as §1

[11] = test system: K. pneuminiae No. 42
Method in brief: as §1

[12] = test system: M. luteus ATCC 9341; details: Micrococcus luteus, ATCC9341
Method in brief: as §1

[13] = test system: M. morganii IFO 3848; details: Morganella morganii, IFO3848
Method in brief: as §1

[14] = test system: P. aeruginosa AKR17; details: Pseudomonas aeruginosa
Method in brief: as §1

[15] = test system: P. aeruginosa NCTC 10490; details: Pseudomonas aeruginosa, NCTC10490, P. aeruginosa NCTC 10490; read-out: MIC
Method in brief: as §1

[16] = test system: P. cepacia; details: Burkholderia cepacia, read-out: MIC
Method in brief: as §1

[17] = test system: P. mirabilis IFO 3849; details: Proteus mirabilis, IFO3849, P. mirabilis IFO 3849; read-out: MIC
Method in brief: as §1

[18] = test system: P. vulugaris OX-19
Method in brief: as §1

[19] = test system: S. aureus 167; details: Staphylococcus aureus; S. aureus 167 (MRSA)
Method in brief: as §1

[20] = test system: S. aureus 195; details: Staphylococcus aureus; S. aureus 195 (MRSA)
Method in brief: as §1

[21] = test system: S. aureus 209p JC-1; details: Staphylococcus aureus, 209P, read-out: MIC
Method in brief: as §1

[22] = test system: S. aureus Smith; details: Staphylococcus aureus, read-out: MIC
Method in brief: as §1

[23] = test system: S. epidemidis IAM 1296
Method in brief: as §1

[24] = test system: S. marcescens IAM 1184; details: Serratia marcescens, IAM1184, S. marcescens IAM 1184; read-out: MIC
Method in brief: as §1

[25] = test system: S. marcescens No. 16-2; details: Serratia marcescens, NO.162
Method in brief: as §1

Compound | MIC [1] | MIC [2] | MIC [3] | MIC [4] | MIC [5] | MIC [6] | MIC [7] | MIC [8] | MIC [9] | MIC [10] | MIC [11] | MIC [12] | MIC [13] | MIC [14] | MIC [15] | MIC [16] | MIC [17] | MIC [18] | MIC [19] | MIC [20] | other results
Nc1nc(/C(=N/O)C(=O)N[C@@H]2C(=O)N3C(C(=O)[O-])=C(C[n+]4ccc(-c5ncon5)cc4)CS[C@H]23)cs1 [Ex. 17, 7β-[2-(2-aminothiazol-4-yl)-2-syn-hydroxyiminoacetamido]-3-[4-(1,2,4-oxadiazol-3-yl)pyridinio]methyl-3-cephem-4-carboxylate] | 12.5 µg/mL (≈ 23.7 µM) | 3.13 µg/mL (≈ 5.92 µM) | 0.39 µg/mL (≈ 0.738 µM) | 0.39 µg/mL (≈ 0.738 µM) | 6.25 µg/mL (≈ 11.8 µM) | 50 µg/mL (≈ 94.6 µM) | 0.78 µg/mL (≈ 1.48 µM) | 0.78 µg/mL (≈ 1.48 µM) | 0.39 µg/mL (≈ 0.738 µM) | 0.39 µg/mL (≈ 0.738 µM) | 0.78 µg/mL (≈ 1.48 µM) | 0.1 µg/mL (≈ 0.189 µM) | 0.2 µg/mL (≈ 0.378 µM) | > 100 µg/mL | 3.13 µg/mL (≈ 5.92 µM) | > 100 µg/mL | 0.39 µg/mL (≈ 0.738 µM) | 0.39 µg/mL (≈ 0.738 µM) | 6.25 µg/mL (≈ 11.8 µM) | 3.13 µg/mL (≈ 5.92 µM) | MIC [21]: 0.39 µg/mL (≈ 0.738 µM); MIC [22]: 0.78 µg/mL (≈ 1.48 µM); MIC [23]: 0.2 µg/mL (≈ 0.378 µM); MIC [24]: 0.39 µg/mL (≈ 0.738 µM); MIC [25]: > 100 µg/mL
Nc1nc(/C(=N/O)C(=O)N[C@@H]2C(=O)N3C(C(=O)[O-])=C(C[n+]4ccc(-c5nnco5)cc4)CS[C@H]23)cs1 [Ex. 18, 7β-[2-(2-aminothiazol-4-yl)-2-syn-hydroxyiminoacetsmido]-3-[4-(1,3,4-oxadiazol-2-yl)pyridinio]methyl-3-cephem-4-carboxylate] | 25 µg/mL (≈ 47.3 µM) | 1.56 µg/mL (≈ 2.95 µM) | 0.78 µg/mL (≈ 1.48 µM) | 0.39 µg/mL (≈ 0.738 µM) | 50 µg/mL (≈ 94.6 µM) | > 100 µg/mL | 0.39 µg/mL (≈ 0.738 µM) | 6.25 µg/mL (≈ 11.8 µM) | 0.2 µg/mL (≈ 0.378 µM) | 0.2 µg/mL (≈ 0.378 µM) | 1.56 µg/mL (≈ 2.95 µM) | 0.2 µg/mL (≈ 0.378 µM) | 0.05 µg/mL (≈ 0.0946 µM) | > 100 µg/mL | 12.5 µg/mL (≈ 23.7 µM) | > 100 µg/mL | 0.2 µg/mL (≈ 0.378 µM) | 0.2 µg/mL (≈ 0.378 µM) | 25 µg/mL (≈ 47.3 µM) | 12.5 µg/mL (≈ 23.7 µM) | MIC [21]: 0.78 µg/mL (≈ 1.48 µM); MIC [22]: 1.56 µg/mL (≈ 2.95 µM); MIC [23]: 0.39 µg/mL (≈ 0.738 µM); MIC [24]: 0.39 µg/mL (≈ 0.738 µM); MIC [25]: > 100 µg/mL
NC(=NO)c1ccc[n+](CC2=C(C(=O)[O-])N3C(=O)[C@@H](NC(=O)/C(=N\O)c4csc(N)n4)[C@H]3SC2)c1 [Ex. 19, 7β-[2-(2-aminothiazol-4-yl)-2-syn-hydroxyiminoacetamido]-3-[3-(1-amino-1-hydroxyiminomethyl)pyridinio]methyl-3-cephem-4-carboxylate] | 6.25 µg/mL (≈ 12.1 µM) | 3.18 µg/mL (≈ 6.13 µM) | 0.39 µg/mL (≈ 0.752 µM) | 0.39 µg/mL (≈ 0.752 µM) | 3.13 µg/mL (≈ 6.04 µM) | 50 µg/mL (≈ 96.4 µM) | 0.39 µg/mL (≈ 0.752 µM) | 0.78 µg/mL (≈ 1.5 µM) | 0.39 µg/mL (≈ 0.752 µM) | 0.2 µg/mL (≈ 0.386 µM) | 0.78 µg/mL (≈ 1.5 µM) | 0.1 µg/mL (≈ 0.193 µM) | 0.2 µg/mL (≈ 0.386 µM) | > 100 µg/mL | 3.13 µg/mL (≈ 6.04 µM) | > 100 µg/mL | 0.39 µg/mL (≈ 0.752 µM) | 0.39 µg/mL (≈ 0.752 µM) | 6.25 µg/mL (≈ 12.1 µM) | 1.56 µg/mL (≈ 3.01 µM) | MIC [21]: 0.2 µg/mL (≈ 0.386 µM); MIC [22]: 0.39 µg/mL (≈ 0.752 µM); MIC [23]: 0.1 µg/mL (≈ 0.193 µM); MIC [24]: 0.2 µg/mL (≈ 0.386 µM); MIC [25]: 100 µg/mL (≈ 193 µM)
